From ChEMBL document CHEMBL3627608, “Crystal structures of human RIP2 kinase catalytic domain complexed with ATP-competitive inhibitors: Foundations for understanding inhibitor selectivity” (Bioorg Med Chem, 2015)

Key:
[1] = target: T1, Dual specificity mitogen-activated protein kinase kinase 3 (Homo sapiens) (UniProt P46734); experiment: Inhibition of MEK3 (unknown origin) at 10 uM after 120 mins P33 radiolabeled kinase activity assay
T1 sequence (whole entry): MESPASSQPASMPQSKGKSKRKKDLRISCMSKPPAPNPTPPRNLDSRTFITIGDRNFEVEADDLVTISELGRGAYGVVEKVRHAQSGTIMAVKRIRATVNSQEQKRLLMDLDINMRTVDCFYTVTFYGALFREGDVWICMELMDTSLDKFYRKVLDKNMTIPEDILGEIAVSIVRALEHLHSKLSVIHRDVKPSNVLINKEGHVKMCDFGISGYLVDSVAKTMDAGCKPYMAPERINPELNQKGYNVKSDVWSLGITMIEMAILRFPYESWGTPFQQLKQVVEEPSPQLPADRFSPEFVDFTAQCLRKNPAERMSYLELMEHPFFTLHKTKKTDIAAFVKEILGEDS

[2] = target: T2, Testis-specific serine/threonine-protein kinase 3 (Homo sapiens) (UniProt Q96PN8); experiment: Inhibition of TSSK3 (unknown origin) at 10 uM after 120 mins P33 radiolabeled kinase activity assay
T2 sequence (whole entry): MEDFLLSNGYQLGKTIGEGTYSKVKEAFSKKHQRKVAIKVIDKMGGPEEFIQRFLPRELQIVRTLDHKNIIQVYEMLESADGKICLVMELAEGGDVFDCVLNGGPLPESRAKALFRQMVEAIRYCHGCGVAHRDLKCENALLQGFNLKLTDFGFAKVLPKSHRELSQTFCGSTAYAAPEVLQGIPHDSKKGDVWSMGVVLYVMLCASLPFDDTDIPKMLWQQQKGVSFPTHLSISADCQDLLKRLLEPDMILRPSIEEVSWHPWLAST

[3] = target: T3, Serine/threonine-protein kinase ULK1 (Homo sapiens) (UniProt O75385); experiment: Inhibition of ULK1 (unknown origin) at 10 uM after 120 mins P33 radiolabeled kinase activity assay
T3 sequence (whole entry): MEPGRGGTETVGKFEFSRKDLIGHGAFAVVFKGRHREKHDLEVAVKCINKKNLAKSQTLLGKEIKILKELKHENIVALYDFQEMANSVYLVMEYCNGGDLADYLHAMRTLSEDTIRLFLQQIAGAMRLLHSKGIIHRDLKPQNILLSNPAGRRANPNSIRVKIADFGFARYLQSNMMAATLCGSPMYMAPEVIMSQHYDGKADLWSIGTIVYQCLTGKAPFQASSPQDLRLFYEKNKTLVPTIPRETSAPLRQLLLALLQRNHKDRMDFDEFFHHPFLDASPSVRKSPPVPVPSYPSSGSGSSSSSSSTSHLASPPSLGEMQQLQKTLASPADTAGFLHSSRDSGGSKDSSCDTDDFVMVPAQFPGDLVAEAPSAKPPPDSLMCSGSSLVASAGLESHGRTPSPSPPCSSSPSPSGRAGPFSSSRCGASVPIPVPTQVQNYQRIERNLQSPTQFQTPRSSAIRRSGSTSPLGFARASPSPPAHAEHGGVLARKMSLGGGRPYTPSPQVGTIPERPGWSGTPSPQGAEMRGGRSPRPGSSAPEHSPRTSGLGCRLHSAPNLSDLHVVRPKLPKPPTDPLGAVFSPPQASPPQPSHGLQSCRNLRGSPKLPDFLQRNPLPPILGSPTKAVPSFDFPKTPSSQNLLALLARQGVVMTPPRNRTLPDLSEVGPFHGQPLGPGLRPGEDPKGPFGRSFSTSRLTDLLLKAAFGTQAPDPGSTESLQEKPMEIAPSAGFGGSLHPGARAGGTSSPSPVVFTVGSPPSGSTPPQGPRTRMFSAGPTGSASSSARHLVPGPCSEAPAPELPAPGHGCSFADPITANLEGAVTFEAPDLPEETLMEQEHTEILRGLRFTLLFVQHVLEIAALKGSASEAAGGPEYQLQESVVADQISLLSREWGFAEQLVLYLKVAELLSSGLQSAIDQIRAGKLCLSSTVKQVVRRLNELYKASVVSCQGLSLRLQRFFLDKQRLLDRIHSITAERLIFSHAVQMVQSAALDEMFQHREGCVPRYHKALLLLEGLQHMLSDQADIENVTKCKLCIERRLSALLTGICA

[4] = target: CDK9/Cyclin K (Homo sapiens) (UniProt P50750+O75909); experiment: Inhibition of CDK9/cyclin K (unknown origin) at 10 uM after 120 mins P33 radiolabeled kinase activity assay; type: protein-complex assay
[5] = target: Tyrosine-protein kinase HCK (Homo sapiens) (UniProt P08631); experiment: Inhibition of HCK (unknown origin) at 10 uM after 120 mins P33 radiolabeled kinase activity assay
[6] = target: Dual specificity protein kinase CLK3 (Homo sapiens) (UniProt P49761); experiment: Inhibition of CLK3 (unknown origin) at 10 uM after 120 mins P33 radiolabeled kinase activity assay
[7] = target: T4, Serine/threonine-protein kinase NLK (Homo sapiens) (UniProt Q9UBE8); experiment: Inhibition of NLK (unknown origin) at 10 uM after 120 mins P33 radiolabeled kinase activity assay
T4 sequence (whole entry): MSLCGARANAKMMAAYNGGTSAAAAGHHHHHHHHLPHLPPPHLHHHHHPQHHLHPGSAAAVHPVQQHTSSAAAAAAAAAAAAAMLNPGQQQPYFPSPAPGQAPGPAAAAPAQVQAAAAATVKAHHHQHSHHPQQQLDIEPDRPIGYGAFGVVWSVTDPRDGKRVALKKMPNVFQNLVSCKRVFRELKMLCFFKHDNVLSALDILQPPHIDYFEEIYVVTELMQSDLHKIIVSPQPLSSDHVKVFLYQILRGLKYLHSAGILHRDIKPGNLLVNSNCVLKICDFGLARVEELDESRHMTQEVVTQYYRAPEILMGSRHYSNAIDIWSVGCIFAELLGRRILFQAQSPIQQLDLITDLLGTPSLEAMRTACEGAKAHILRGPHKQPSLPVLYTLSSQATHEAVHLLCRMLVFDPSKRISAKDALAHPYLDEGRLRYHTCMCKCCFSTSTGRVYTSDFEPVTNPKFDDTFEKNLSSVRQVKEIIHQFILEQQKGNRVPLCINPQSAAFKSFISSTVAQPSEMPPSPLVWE

[8] = target: Serine/threonine-protein kinase SIK3 (Homo sapiens) (UniProt Q9Y2K2); experiment: Inhibition of SIK3 (unknown origin) at 10 uM after 120 mins P33 radiolabeled kinase activity assay
[9] = target: Ephrin type-A receptor 5 (Homo sapiens) (UniProt P54756); experiment: Inhibition of EPHA5 (unknown origin) at 10 uM after 120 mins P33 radiolabeled kinase activity assay
[10] = target: Serine/threonine-protein kinase PAK 5 (Homo sapiens) (UniProt Q9P286); experiment: Inhibition of PAK5 (unknown origin) at 10 uM after 120 mins P33 radiolabeled kinase activity assay
Sequence of Serine/threonine-protein kinase PAK 5 (Homo sapiens) (Q9P286 whole entry, looked up): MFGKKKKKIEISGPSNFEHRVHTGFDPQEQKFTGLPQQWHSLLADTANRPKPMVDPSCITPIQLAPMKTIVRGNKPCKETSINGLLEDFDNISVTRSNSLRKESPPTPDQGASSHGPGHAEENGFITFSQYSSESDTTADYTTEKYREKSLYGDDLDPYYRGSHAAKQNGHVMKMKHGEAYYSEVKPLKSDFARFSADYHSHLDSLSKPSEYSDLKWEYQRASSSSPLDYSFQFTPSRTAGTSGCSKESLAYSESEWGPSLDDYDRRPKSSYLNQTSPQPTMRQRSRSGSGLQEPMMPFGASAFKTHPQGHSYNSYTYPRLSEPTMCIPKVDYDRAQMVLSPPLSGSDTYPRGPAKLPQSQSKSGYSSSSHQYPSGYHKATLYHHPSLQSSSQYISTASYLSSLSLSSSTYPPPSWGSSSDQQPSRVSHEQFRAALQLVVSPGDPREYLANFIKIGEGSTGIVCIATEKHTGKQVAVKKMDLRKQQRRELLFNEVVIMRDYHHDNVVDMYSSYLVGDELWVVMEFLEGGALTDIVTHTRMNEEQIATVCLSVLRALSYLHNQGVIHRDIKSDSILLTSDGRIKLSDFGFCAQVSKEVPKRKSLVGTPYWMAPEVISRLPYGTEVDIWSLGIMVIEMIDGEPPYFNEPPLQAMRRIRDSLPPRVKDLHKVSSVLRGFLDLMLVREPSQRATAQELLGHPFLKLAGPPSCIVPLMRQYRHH

Sequence of Dual specificity protein kinase CLK3 (Homo sapiens) (P49761 whole entry, looked up): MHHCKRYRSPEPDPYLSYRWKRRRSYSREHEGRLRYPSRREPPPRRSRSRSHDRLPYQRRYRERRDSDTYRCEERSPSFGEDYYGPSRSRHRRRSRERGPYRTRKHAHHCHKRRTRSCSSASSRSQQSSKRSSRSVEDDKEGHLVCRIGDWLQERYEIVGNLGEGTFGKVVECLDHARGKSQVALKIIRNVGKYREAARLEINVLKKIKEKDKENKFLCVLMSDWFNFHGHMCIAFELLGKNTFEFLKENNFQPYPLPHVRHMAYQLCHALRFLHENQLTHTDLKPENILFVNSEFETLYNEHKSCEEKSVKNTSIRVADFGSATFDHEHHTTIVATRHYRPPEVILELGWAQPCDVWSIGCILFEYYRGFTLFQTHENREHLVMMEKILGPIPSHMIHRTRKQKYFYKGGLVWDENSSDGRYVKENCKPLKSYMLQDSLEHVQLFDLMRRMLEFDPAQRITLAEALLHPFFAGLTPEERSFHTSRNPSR
Sequence of Serine/threonine-protein kinase SIK3 (Homo sapiens) (Q9Y2K2 whole entry, looked up): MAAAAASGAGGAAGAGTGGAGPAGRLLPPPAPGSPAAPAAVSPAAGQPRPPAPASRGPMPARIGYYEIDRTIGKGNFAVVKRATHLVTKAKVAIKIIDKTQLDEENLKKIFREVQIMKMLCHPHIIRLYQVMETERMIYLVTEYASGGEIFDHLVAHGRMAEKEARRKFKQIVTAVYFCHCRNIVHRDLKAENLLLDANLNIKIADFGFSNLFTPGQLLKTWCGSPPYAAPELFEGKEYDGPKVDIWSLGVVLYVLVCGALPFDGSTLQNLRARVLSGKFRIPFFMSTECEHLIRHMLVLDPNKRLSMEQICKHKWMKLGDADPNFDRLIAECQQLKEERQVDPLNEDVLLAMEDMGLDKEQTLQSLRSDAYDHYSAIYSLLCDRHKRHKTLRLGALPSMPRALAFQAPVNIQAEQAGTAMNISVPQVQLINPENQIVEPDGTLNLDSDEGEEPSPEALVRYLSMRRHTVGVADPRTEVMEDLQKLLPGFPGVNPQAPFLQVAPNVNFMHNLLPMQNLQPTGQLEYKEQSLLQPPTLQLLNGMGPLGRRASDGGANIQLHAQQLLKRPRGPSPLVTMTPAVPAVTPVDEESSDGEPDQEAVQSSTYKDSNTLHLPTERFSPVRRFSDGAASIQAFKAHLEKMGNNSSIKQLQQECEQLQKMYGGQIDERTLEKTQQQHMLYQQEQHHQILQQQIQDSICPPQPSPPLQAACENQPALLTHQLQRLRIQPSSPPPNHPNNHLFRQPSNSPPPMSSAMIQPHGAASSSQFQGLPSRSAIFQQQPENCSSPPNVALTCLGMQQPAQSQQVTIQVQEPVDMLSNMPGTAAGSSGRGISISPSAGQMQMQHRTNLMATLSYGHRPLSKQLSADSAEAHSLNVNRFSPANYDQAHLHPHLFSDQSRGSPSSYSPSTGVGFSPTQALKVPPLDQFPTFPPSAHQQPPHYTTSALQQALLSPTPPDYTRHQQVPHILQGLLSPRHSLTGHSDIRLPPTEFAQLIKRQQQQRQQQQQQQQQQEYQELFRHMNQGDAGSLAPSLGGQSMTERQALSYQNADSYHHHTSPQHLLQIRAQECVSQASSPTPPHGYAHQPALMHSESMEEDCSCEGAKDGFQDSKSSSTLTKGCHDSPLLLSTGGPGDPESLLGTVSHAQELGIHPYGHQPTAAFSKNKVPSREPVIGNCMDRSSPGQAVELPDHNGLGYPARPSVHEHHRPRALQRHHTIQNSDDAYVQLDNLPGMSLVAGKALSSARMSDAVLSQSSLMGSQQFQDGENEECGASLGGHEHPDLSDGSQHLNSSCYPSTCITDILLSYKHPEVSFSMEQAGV
Sequence of Tyrosine-protein kinase HCK (Homo sapiens) (P08631 2-526 limits assumed): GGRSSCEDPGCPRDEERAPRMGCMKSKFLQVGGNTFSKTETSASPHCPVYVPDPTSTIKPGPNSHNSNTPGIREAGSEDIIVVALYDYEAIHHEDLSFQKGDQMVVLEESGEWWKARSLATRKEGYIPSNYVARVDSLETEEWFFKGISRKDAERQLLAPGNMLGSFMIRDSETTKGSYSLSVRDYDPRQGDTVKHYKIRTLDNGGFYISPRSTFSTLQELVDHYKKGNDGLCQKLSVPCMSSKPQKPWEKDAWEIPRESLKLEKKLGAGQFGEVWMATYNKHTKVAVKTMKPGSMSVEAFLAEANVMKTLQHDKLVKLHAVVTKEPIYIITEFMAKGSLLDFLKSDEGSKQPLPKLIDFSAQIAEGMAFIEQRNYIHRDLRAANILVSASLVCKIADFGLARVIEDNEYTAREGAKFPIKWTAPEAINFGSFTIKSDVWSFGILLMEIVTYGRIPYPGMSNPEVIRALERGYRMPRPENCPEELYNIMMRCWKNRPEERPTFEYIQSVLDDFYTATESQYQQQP
Sequence of Ephrin type-A receptor 5 (Homo sapiens) (P54756 whole entry): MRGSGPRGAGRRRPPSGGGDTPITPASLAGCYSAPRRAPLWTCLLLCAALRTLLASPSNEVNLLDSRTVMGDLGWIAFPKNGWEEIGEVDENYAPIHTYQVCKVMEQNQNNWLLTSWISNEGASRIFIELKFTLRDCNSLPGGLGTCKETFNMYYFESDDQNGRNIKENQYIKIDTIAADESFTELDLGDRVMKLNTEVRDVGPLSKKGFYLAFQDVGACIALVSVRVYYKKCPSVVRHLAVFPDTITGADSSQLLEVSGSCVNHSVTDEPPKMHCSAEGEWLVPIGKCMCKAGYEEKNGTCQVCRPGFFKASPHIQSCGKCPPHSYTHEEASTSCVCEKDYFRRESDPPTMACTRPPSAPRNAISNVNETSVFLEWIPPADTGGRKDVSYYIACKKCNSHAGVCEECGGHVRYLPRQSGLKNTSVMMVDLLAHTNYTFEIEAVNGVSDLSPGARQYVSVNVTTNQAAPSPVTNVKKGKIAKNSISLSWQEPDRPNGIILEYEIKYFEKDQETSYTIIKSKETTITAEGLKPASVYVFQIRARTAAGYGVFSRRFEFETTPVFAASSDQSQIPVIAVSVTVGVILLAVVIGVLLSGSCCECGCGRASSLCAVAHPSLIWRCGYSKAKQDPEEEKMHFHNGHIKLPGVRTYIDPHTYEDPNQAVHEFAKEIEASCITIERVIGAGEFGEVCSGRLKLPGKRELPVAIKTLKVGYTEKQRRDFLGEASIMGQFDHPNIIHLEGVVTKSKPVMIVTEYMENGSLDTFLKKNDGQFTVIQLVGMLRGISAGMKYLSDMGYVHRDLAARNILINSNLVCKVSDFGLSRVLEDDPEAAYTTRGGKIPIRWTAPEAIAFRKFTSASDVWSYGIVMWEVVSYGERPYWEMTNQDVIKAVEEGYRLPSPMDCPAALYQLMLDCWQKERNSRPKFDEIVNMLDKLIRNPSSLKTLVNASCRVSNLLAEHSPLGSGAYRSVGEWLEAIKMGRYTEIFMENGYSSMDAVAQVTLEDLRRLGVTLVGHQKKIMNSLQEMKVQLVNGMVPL

inhibition [1] [%]	inhibition [2] [%]	inhibition [3] [%]	inhibition [4] [%]	inhibition [5] [%]	inhibition [6] [%]	inhibition [7] [%]	inhibition [8] [%]	inhibition [9] [%]	inhibition [10] [%]	SMILES
21.2	10.5	52.4	6.34	99.2	36.7	88.6	99.6	58	17.8	CS(=O)(=O)c1cccc(Nc2nccc(-c3sc(N4CCOCC4)nc3-c3cccc(NS(=O)(=O)c4c(F)cccc4F)c3)n2)c1
0.04	15	3.62	3.39	70	5.68	55.2	6.53	20.2	14.8	COCCNC(=O)c1ccc2c(c1)nc(-c1cnc(-c3ccc(Cl)cc3)[nH]1)n2CCOC
3.51	11.2	5.71	37	91.1	9.12	51.5	9.52	95.5	14.3	CC(C)(C)c1cc(NC(=O)Nc2ccc(Oc3ccncc3)cc2)no1
